Source: patent US20250197372A1 (priority 2020, published 2025)
Like-named read-outs stand apart in the source and are kept apart here.

Experiments:
Type in all cases: biochemical
[1] = molecular target: T1, recombinant alpha-glucosidase I (human full-length glucosidase I, Glu 1) (Homo sapiens, UniProt Q13724); assay: Alpha-glucosidase I assay (Amplex Red glucose detection, synthetic trisaccharide substrate)
T1 construct: 6-His (C); made in house; host or cells: HEK-293T cells transduced with BacMam virus (virus raised in Sf9)
T1 sequence (Q13724 1-837): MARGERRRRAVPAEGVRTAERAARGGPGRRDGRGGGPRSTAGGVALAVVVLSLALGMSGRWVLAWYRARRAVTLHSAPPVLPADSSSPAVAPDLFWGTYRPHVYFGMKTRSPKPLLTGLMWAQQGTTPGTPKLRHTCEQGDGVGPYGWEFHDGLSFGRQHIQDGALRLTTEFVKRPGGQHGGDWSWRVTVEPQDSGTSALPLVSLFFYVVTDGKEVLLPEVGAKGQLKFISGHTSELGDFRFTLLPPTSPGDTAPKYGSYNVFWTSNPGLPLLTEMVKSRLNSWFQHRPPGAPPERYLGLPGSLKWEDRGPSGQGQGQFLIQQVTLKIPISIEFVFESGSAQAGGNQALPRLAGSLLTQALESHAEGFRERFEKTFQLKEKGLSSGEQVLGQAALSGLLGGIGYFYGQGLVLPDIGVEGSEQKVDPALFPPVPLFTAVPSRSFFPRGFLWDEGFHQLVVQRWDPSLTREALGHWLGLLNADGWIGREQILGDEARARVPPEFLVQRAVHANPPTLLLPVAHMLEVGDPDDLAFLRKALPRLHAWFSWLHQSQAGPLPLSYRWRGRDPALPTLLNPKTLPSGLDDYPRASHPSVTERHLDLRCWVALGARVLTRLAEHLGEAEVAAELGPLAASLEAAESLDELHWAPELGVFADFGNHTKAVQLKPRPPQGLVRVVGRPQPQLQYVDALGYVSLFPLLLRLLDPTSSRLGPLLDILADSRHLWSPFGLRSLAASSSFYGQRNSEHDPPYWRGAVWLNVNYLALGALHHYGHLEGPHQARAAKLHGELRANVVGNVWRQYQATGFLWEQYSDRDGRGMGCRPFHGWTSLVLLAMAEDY
Description: Preparation of Human Full-length Glucosidase I: The amino acid sequence for human full-length glucosidase I was obtained from UniProt (Q13724). […] The entry vector was cloned into Kemp Proteins' BacMam Destination vector and transformed into chemically competent DH10Bac E. coli cells to produce recombinant glucosidase I bacmids. Bacmid isolates were obtained following two rounds of blue-white screening and they were transfected into Sf9 cells cultivated in serum-free medium (Thermo Fisher Scientific). Four days post-transfection the culture supernatants containing virus were harvested and filter sterilized. […] A multiplicity of infection (MOI, ratio of virus to cells) of 4 was selected. Soluble glucosidase I was detected by anti-His western blots in the soluble cell extract following extraction with 1% V/V NP40 for 30 minutes at 0° C. Productions and purifications of glucosidase I were carried out at scales ranging from 1-liter to 10-liters. […] In another example production at the 10-liter scale was performed in stirred-tank bioreactors at 27° C. and 80 rpm with dissolved oxygen level at 50% of oxygen in air and pH between 7.0 and 7.2. Cells were transduced at MOI of 4 and the cell pellet was harvested at 48 hours post-transduction using centrifugation.
The pellet from a 10-liter culture was lysed by resuspending the pellet into 1-liter of 50 mM NaH2PO4—H2O+300 mM NaCl+10 mM Imidazole+1 mM PMSF+1% V/V NP40 pH 8. The suspension was incubated on ice for 30 minutes and clarified at 500×g and 4° C. The supernatant was collected and clarified at 20,000×g for 30 minutes at 4° C. and the supernatant was collected and filtered through a 0.2 micron filter. […] The column was washed with 20 column volumes (CV) of 50 mM NaH2PO4-H2O+300 mM NaCl+10 mM Imidazole pH 8 and eluted using a linear gradient of 0-60% 50 mM NaH2PO4-H2O+300 mM NaCl+500 mM Imidazole pH 8 over 90 minutes. at 5 mL per minute. Fractions (25 mL) were collected and analyzed by SDS PAGE and Western Blot (reducing anti-His). Fractions containing purified glucosidase I were pooled and dialyzed into storage buffer (20 mM Tris+300 mM NaCl+50 mM L-arginine+10 mM EDTA+0.01% V/V Tween 80 pH 7.5). The final material was filter sterilized and stored at 4° C. and the working dilution confirmed by a use-test in the indicated assay conditions prior to use.
Alpha-glucosidase I Assay: The assay was performed by incubating recombinant alpha-glucosidase I enzyme with multiple dilutions of test compounds for 60 minutes at 37° C. A synthetic trisaccharide substrate analog was then introduced to the mixture for 90 minutes at 37° C. The reaction was then stopped with 1.5M Tris (pH 8). In the absence of inhibition, the terminal glucose of the substrate was hydrolyzed by the enzyme. The D-glucose product was detected using Amplex Red Glucose/Glucose Oxidase Assay Kit (Invitrogen) following the manufacturer's directions where glucose oxidase reacts with D-glucose to form D-gluconolactone and H2O2 which then reacts with the Amplex Red reagent to generate a red-fluorescent oxidation product (560 nm, excitation; 590 nm, emission). […] Percent inhibition is plotted as a function of concentration for each compound, compared to control reactions. The IC50 was determined using a 4-PL curve fit and serves as a measure of relative inhibitory activity of each test compound (see Table 3).

[2] = molecular target: T2, recombinant alpha-glucosidase II (murine full-length glucosidase II, alpha and beta subunits, Glu 2) (Mus musculus, UniProt Q8BHN3); assay: Alpha-glucosidase II assay (4-methylumbelliferyl-alpha-D-pyranoside substrate, fluorescence)
T2 construct: made in house; host or cells: HEK-293T cells transduced with BacMam viruses (75% alpha, 25% beta); protein harvested from culture supernatant
T2 sequence (O08795 15-521): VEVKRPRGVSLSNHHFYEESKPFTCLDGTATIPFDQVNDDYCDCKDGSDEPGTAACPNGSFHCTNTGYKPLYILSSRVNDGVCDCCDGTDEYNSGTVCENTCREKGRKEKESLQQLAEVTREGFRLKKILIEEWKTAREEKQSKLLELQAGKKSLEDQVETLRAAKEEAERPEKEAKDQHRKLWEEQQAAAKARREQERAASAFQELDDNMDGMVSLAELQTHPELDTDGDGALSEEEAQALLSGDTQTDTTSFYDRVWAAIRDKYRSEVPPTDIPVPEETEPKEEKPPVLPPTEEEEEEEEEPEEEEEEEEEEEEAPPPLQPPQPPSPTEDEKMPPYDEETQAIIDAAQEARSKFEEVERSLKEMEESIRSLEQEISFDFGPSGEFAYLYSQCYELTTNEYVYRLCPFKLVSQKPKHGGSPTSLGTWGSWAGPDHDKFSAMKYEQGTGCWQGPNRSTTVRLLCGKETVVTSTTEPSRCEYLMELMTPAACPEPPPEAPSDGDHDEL
T2 sequence (Q8BHN3 33-944): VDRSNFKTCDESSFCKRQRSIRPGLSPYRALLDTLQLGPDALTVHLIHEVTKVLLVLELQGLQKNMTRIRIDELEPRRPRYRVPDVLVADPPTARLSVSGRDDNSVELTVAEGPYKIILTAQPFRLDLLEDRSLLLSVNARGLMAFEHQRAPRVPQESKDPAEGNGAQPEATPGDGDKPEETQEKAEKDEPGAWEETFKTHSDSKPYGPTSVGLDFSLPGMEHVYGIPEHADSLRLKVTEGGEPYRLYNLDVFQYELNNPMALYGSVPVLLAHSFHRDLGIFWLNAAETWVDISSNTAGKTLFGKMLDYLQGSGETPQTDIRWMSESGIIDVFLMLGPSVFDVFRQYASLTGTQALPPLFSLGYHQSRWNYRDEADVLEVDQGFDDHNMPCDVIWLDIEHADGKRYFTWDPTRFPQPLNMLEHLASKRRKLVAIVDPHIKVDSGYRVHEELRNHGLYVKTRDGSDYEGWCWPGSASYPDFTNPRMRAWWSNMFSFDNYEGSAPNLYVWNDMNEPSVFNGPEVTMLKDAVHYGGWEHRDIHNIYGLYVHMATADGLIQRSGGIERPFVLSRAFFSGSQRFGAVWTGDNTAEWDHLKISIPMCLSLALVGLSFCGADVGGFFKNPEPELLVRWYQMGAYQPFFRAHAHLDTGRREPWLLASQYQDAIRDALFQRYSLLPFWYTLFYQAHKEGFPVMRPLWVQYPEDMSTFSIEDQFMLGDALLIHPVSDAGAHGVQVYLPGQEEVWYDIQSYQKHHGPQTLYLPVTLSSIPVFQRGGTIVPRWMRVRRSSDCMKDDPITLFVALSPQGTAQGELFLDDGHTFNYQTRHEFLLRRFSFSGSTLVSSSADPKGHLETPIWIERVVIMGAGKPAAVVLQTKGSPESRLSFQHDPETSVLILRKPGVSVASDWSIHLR

[3] = molecular target: recombinant human GAA (acid alpha-glucosidase) (Homo sapiens, UniProt P10253); assay: Acid alpha-glucosidase (GAA) assay (4-methylumbelliferyl-alpha-D-pyranoside substrate, fluorescence)
Procedure: Acid alpha-glucosidase (GAA): To analyze inhibitory effects of a test compound, commercially available recombinant human GAA was incubated with multiple dilutions of test compound for 60 minutes at 37° C. 4-methylumbelliferyl-alpha-D-pyranoside was then introduced to the mixture as the substrate. 1,4-methyllumbelliferone is generated, and after an incubation for 20 minutes at 37° C., the reaction was stopped with the stop solution (0.5M glycine 0.3M NaOH pH 10). 1,4-methyllumbelliferone is detected by fluorescence (excitation at 365 nm, emission at 440 nm). Relative fluorescence compared to untreated enzymatic activity and test compound concentration is plotted as a function of percent inhibition. The IC50 is determined using a 4-PL curve fit as the measure of relative inhibitory activity of each test compound (see Table 3).

[4] = Glucosidase 1, read-out: Glu 1 IC50
[5] = Glucosidase 2, read-out: Glu2 IC50

Row | Compound | IC50 [1, 4] [µM] | IC50 [2, 5] [µM] | IC50 [3] [µM] | IC50 [1] [µM] | IC50 [2] [µM]
1 | [N-]=[N+]=Nc1ccc(NCCc2cc(CCN3C[C@H](O)[C@@H](O)[C@H](O)[C@H]3CO)ccc2C2CCCCC2)c([N+](=O)[O-])c1 [Compound 1171, (2R,3R,4R,5S)-1-[2-(3-{2-[(4-azido-2-nitrophenyl)amino]ethyl}-4-cyclohexylphenyl)ethyl]-2-(hydroxymethyl)piperidine-3,4,5-triol] | 0.301 | 1.01 | 2.08 | – | –
2 | [N-]=[N+]=Nc1ccc(NCc2ccc(CN3C[C@H](O)[C@@H](O)[C@H](O)[C@H]3CO)cc2)c([N+](=O)[O-])c1 [Compound 1170, (2R,3R,4R,5S)-1-[(4-{[(4-azido-2-nitrophenyl)amino]methyl}phenyl)methyl]-2-(hydroxymethyl)piperidine-3,4,5-triol] | 0.004 | < 0.001 | 0.081 | – | –
3 | OC[C@@H]1[C@@H](O)[C@H](O)[C@@H](O)CN1CCc1ccc(CCNc2cc(Cl)cc(-c3ncccn3)c2)cc1 [Compound 1162, (2R,3R,4R,5S)-1-{2-[4-(2-{[3-chloro-5-(pyrimidin-2-yl)phenyl]amino}ethyl)phenyl]ethyl}-2-(hydroxymethyl)piperidine-3,4,5-triol] | 0.508 | < 0.001 | 0.062 | – | –
4 | O=[N+]([O-])c1cc(N2CCOCC2)ccc1NCc1cccc(CN2C[C@H](O)[C@@H](O)[C@H](O)[C@H]2CO)c1 [Compound 1067, (2R,3R,4R,5S)-2-(hydroxymethyl)-1-{[3-({[4-(morpholin-4-yl)-2-nitrophenyl]amino}methyl)phenyl]methyl}piperidine-3,4,5-triol] | – | 12.8 | 0.426 | 0.099 | –
5 | CCCc1nc(-c2cc(Cl)cc(NCCc3ccc(CCN4C[C@H](O)[C@@H](O)[C@H](O)[C@H]4CO)cc3)c2)no1 [Compound 1123, (2R,3R,4R,5S)-1-{2-[4-(2-{[3-chloro-5-(5-propyl-1,2,4-oxadiazol-3-yl)phenyl]amino}ethyl)phenyl]ethyl}-2-(hydroxymethyl)piperidine-3,4,5-triol] | 1.36 | 0.329 | 0.7 | – | –
6 | COc1cc(NCCCCCCN2C[C@H](O)[C@@H](O)[C@H](O)[C@H]2CO)cc(-c2ccccc2)c1 [Compound 1150, (2R,3R,4R,5S)-2-(hydroxymethyl)-1-[6-({5-methoxy-[1,1′-biphenyl]-3-yl}amino)hexyl]piperidine-3,4,5-triol] | 0.08 | < 0.001 | 0.045 | – | –
7 | [N-]=[N+]=Nc1ccc(NCc2cc(CCN3C[C@H](O)[C@@H](O)[C@H](O)[C@H]3CO)cs2)c([N+](=O)[O-])c1 [Compound 1174, (2R,3R,4R,5S)-1-[2-(5-{[(4-azido-2-nitrophenyl)amino]methyl}thiophen-3-yl)ethyl]-2-(hydroxymethyl)piperidine-3,4,5-triol] | 0.531 | < 0.001 | 0.23 | – | –
8 | OC[C@@H]1[C@@H](O)[C@H](O)[C@@H](O)CN1CCc1ccc(CCNc2cc(Cl)cc(-c3ccco3)c2)cc1 [Compound 1159, (2R,3R,4R,5S)-1-{2-[4-(2-{[3-chloro-5-(furan-2-yl)phenyl]amino}ethyl)phenyl]ethyl}-2-(hydroxymethyl)piperidine-3,4,5-triol] | 0.183 | 0.091 | < 0.001 | – | –
9 | O=[N+]([O-])c1cc(N2C3CCC2COC3)ccc1NCc1ccc(CN2CC(O)C(O)C(O)C2CO)cc1 (stereo in doubt) [Compound 1018, (2S,3S,4S,5R)-2-(hydroxymethyl)-1-({4-[({2-nitro-4-[(1R,5S)-3-oxa-8-azabicyclo[3.2.1]octan-8-yl]phenyl}amino)methyl]phenyl}methyl) piperidine-3,4,5-triol] | – | – | 0.044 | < 0.001 | < 0.001
10 | COc1cc(-c2cnccn2)ccc1NCCCCCCN1C[C@H](O)[C@@H](O)[C@H](O)[C@H]1CO [Compound 1199, (2R,3R,4R,5S)-2-(hydroxymethyl)-1-(6-{[2-methoxy-4-(pyrazin-2-yl)phenyl]amino}hexyl)piperidine-3,4,5-triol] | 0.077 | 0.012 | 0.043 | – | –
11 | O=[N+]([O-])c1cc(CCO)ccc1NCCCCCCN1C[C@H](O)[C@@H](O)[C@H](O)[C@H]1CO [Compound 1292, (2R,3R,4R,5S)-1-(6-{[4-(2-hydroxyethyl)-2-nitrophenyl]amino}hexyl)-2-(hydroxymethyl)piperidine-3,4,5-triol] | – | 0.0086 | 0.028 | 0.157 | –
12 | [N-]=[N+]=Nc1ccc(NCc2ccc(-c3ccc(CN4C[C@H](O)[C@@H](O)[C@H](O)[C@H]4CO)cc3)cc2)c([N+](=O)[O-])c1 [Compound 1166, (2R,3R,4R,5S)-1-[(4′-{[(4-azido-2-nitrophenyl)amino]methyl}-[1,1′-biphenyl]-4-yl)methyl]-2-(hydroxymethyl)piperidine-3,4,5-triol] | 0.184 | 2.01 | 1.38 | – | –
13 | [N-]=[N+]=Nc1ccc(NCc2cccc(CN3C[C@H](O)[C@@H](O)[C@H](O)[C@H]3CO)c2)c([N+](=O)[O-])c1 [Compound 1169, (2R,3R,4R,5S)-1-[(3-{[(4-azido-2-nitrophenyl)amino]methyl}phenyl)methyl]-2-(hydroxymethyl)piperidine-3,4,5-triol] | 0.068 | 16.1 | 0.42 | – | –
14 | [N-]=[N+]=Nc1ccc(NCCNc2cc(Cl)cc(CCN3C[C@H](O)[C@@H](O)[C@H](O)[C@H]3CO)c2)c([N+](=O)[O-])c1 [Compound 1143, (2R,3R,4R,5S)-1-{2-[3-({2-[(4-azido-2-nitrophenyl)amino]ethyl}amino)-5-chlorophenyl]ethyl}-2-(hydroxymethyl)piperidine-3,4,5-triol] | 0.334 | 0.002 | 0.796 | – | –
